The nature of this data set: excess molar enthalpy (molar enthalpy of mixing); xn = mol fraction of the nth substance listed. To be noted: 308.15 K, 101 kPa, Liquid, Calvet calorimetry.

Structures are written as SMILES. ± gives the expanded uncertainty stated by the source.

As for `C1CCNCC1` [piperidine] + C1COCCN1, the excess molar enthalpy came to 0.0251 ± 0.000956 kcal/mol (x2 = 0.126); 0.0375 ± 0.0012 kcal/mol (x2 = 0.2); 0.0531 ± 0.00167 kcal/mol (x2 = 0.33); 0.0605 ± 0.00191 kcal/mol (x2 = 0.435); 0.0631 ± 0.00191 kcal/mol (x2 = 0.499); 0.0626 ± 0.00191 kcal/mol (x2 = 0.601). The excess molar enthalpy is, setting by setting: (x2 = 0.701) 0.0564 ± 0.00167 kcal/mol; (x2 = 0.802) 0.0447 ± 0.00143 kcal/mol; (x2 = 0.901) 0.0261 ± 0.000956 kcal/mol.

With `C1CCNCC1` [piperidine] + C1COCCO1, the excess molar enthalpy is, setting by setting: (x2 = 0.113) 0.0853 ± 0.00263 kcal/mol; (x2 = 0.2) 0.131 ± 0.00406 kcal/mol; (x2 = 0.297) 0.167 ± 0.00526 kcal/mol; (x2 = 0.401) 0.188 ± 0.00574 kcal/mol; (x2 = 0.515) 0.195 ± 0.00598 kcal/mol; (x2 = 0.6) 0.186 ± 0.00574 kcal/mol. For the same compound, the excess molar enthalpy was 0.159 ± 0.00502 kcal/mol (x2 = 0.703), 0.108 ± 0.00335 kcal/mol (x2 = 0.825) and 0.0655 ± 0.00215 kcal/mol (x2 = 0.9).

Source of the values: the NIST ThermoML archive (doi:10.1021/je500088z).
